Measured values reported in ChEMBL document CHEMBL1201862, “PubChem BioAssay data set” (2004).
Active and inactive are the calls of the source.

Legend:
[1] = biological target: E3 ubiquitin-protein ligase Mdm2 (Homo sapiens, UniProt Q00987); assay: MDM2-luc reporter signal enhancers, multi-concentration potency testing, MDM2 ubiquitin-protein ligase inhibitor program, whole-cell format, luminescence detection, 384-well microplate (AID 1394); format: functional;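 also: MDM2 E3 inhibitors raise luminescence so EC50 is for signal enhancement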
Estrogen receptor beta [2] = biological target: T1, Estrogen receptor beta (Homo sapiens, UniProt Q92731);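 also: recombinant ER-beta bound to coactivator SRC1 peptide in presence of estradiol agonist; inhibitors block coactivator peptide binding and lower the FRET signal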
Estrogen receptor beta [3] = biological target: T1, Estrogen receptor beta; assay: blockers of SRC-3 recruitment to ERβ – biochemical, ELISA, streptavidin-HRP readout, orthogonal assay, confirmation (AID 1060)
[4] = biological target: DNA dC->dU-editing enzyme APOBEC-3A (Homo sapiens, UniProt P31941); assay: Dose Response confirmation of small molecule APOBEC3A DNA Deaminase Inhibitors via a fluorescence-based single-stranded DNA deaminase assay. [Related pubchem assays (depositor defined):AID493011, AID493024]; format: functional
[5] = biological target: DNA dC->dU-editing enzyme APOBEC-3G (Homo sapiens, UniProt Q9HC16); format: functional;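 also: Dose-response counterscreen measuring inhibition of APOBEC3G DNA deaminase activity, run while confirming APOBEC3A inhibitors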
[6] = test system: Streptococcus sp. 'group A'; assay: Streptococcus pyogenes SK(-)GAS viability under kanamycin – luminescence, BacTiterGlo, confirmation, counter-screen for streptokinase expression inhibitor project, dose response (AID 1900); format: functional, organism-based
Streptokinase A = biological target: T2, Streptokinase A (Streptococcus pyogenes serotype M1, UniProt P10520); assay: viability-normalized secreted streptokinase activity reduction – plasminogen activation absorbance, OD405, dose response (AID 1914); format: functional, Streptococcus pyogenes M1 GAS;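 also: secreted streptokinase activity via plasminogen activation per viability signal from cell pellet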
T2 sequence (P10520 whole entry): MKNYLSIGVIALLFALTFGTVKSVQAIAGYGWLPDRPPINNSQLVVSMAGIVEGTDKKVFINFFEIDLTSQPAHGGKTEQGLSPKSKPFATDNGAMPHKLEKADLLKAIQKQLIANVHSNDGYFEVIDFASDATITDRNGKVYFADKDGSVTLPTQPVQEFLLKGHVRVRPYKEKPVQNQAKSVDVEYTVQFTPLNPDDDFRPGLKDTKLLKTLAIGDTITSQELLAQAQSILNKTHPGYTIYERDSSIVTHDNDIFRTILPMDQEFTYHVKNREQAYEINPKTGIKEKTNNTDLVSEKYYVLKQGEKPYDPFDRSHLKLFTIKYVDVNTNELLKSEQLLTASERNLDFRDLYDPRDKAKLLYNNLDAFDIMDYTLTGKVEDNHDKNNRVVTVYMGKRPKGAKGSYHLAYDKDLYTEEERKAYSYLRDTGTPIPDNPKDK

[7] = biological target: Heat shock protein HSP 90-alpha (Homo sapiens, UniProt P07900); assay: Luminescence-based dose response biochemical high throughput screening assay for inhibitors of the Heat Shock Protein 90 (HSP90). [Related pubchem assays: 1831 (Summary AID.), 1846 (Confirmation screen.), 1789 (Primary screen.)]
Streptococcus = assay: GAS UMAA2166 growth inhibition – luminescence, BacTiterGlo, counter-screen for streptokinase expression inhibitor project, dose response (AID 1915); format: functional, organism-based;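 also: potency for reduction of bacterial viability or growth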

T1 sequence (Q92731 whole entry): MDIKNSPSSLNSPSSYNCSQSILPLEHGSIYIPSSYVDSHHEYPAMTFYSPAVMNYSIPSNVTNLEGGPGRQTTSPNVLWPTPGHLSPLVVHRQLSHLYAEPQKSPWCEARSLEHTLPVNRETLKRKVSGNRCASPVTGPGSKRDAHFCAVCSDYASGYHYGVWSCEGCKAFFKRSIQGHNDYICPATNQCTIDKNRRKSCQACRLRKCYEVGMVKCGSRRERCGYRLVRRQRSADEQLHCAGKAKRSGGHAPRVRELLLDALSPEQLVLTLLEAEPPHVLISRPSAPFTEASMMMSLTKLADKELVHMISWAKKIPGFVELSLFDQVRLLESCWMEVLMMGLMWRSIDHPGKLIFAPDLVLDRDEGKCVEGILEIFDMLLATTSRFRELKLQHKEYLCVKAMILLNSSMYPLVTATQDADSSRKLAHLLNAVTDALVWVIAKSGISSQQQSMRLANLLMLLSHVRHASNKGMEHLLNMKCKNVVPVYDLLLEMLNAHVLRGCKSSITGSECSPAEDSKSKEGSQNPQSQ
Sequence of DNA dC->dU-editing enzyme APOBEC-3A (P31941 whole entry): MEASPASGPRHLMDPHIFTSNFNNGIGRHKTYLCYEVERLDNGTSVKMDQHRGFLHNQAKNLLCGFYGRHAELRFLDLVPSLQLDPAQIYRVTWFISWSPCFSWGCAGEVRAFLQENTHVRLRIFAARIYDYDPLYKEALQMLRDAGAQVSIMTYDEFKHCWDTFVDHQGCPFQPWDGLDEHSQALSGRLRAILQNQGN
Sequence of E3 ubiquitin-protein ligase Mdm2 (Q00987 whole entry): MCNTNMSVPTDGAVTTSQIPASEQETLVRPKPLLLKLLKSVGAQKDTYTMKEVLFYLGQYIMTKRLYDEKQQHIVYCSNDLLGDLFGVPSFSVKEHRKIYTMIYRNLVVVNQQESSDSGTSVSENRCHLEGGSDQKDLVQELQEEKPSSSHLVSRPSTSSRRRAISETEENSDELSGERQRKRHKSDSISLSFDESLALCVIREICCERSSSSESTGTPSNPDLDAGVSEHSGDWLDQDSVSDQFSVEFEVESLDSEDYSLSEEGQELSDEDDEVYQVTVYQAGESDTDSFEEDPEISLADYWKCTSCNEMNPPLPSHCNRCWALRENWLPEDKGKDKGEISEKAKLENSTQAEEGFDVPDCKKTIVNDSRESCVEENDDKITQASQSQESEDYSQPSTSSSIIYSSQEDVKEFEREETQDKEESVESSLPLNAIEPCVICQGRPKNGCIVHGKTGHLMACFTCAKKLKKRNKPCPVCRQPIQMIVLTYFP
Sequence of DNA dC->dU-editing enzyme APOBEC-3G (Q9HC16 whole entry): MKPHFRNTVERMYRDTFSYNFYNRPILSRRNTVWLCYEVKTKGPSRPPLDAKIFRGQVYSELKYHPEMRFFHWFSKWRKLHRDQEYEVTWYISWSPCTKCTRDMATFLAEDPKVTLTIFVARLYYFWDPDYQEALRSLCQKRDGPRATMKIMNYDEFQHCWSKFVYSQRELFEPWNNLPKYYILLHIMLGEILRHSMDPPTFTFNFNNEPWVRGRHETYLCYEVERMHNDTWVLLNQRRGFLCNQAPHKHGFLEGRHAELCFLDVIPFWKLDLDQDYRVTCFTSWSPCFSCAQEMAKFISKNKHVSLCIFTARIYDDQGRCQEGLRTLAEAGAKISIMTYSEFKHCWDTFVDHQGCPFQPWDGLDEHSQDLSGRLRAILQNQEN

Compound: Cc1ccc(NC(=O)CCC2CC(C)(C)OC2=O)cc1 (centres undefined)
- EC50 [1]: 777 µM (not active)

Compound: O=C(Cc1cccs1)Nc1nnc(Cc2ccccc2)s1
- IC50 (Estrogen receptor beta [2]): 1.7 µM (active)
- IC50 (Estrogen receptor beta [3]): 14.4 µM (not active)
- IC50 [4]: 12 µM (active)
- IC50 [5]: 25.3 µM (active)

Compound: CCOC(=O)c1csc(NC(=O)c2ccc3c(c2)OCCO3)n1
- EC50 [6]: > 150 µM (not active)
- EC50 (Streptokinase A): > 150 µM (not active)
- IC50 [7]: 1.23 µM (active)
- EC50 (Streptococcus): > 150 µM (not active)
